Compound | melting point [°C]
O=C(C1CCN(c2ccncc2)CC1)N1CCN(S(=O)(=O)c2ccc3ccccc3c2)C(Cc2ccccc2)C1 (stereo unspecified) | 186 to 188
COC(=O)CCc1cc2ccc(C(F)(F)F)cc2[nH]1 | 108 to 110
O=[N+]([O-])c1cc(I)ccc1Nc1cccc(-n2cccn2)c1 | 165 to 166
COc1ccc(C2=NN(CCCCN3C(=O)c4ccccc4C3=O)C(=O)[C@H]3CC=CC[C@@H]23)cc1OC (relative stereo) | 139 to 140
O=C(Nc1ccccc1)OCc1cn(-c2cc3cc(C(=O)O)c(=O)[nH]c3cc2[N+](=O)[O-])cn1 | > 300
Cc1cc(C)cc(-c2cnn3c(-c4cccc(-c5nnn(CCN6CCCC6)n5)c4)ccnc23)c1 | 60
CC(=O)Oc1cc(Br)cc2c1OC(C)(C)C2 | 76
CON=Cc1ccc2c(c1)ncn2-c1cccc(-c2nccs2)c1 | 154 to 160
CC(=O)OCc1nccc2[nH]c(=O)ccc12 | 162 to 165
COCCNC(=O)Cn1nc(-c2ccccc2O)nc1-c1ccccc1O | 184 to 186
OCc1cccc(-c2ncc(OCCN3CCOCC3)cn2)c1 | 101 to 102
Fc1ccc(OCc2ccnc3c(Cl)cccc23)cc1 | 144 to 145
Cc1nc2nsc(N)c2s1 | 164 to 167
COc1cc2ncnc(N3CCN(C(=S)Nc4cc(C)cs4)CC3)c2cc1OC | 214 to 216
C=C(CCC)C(=O)c1cc2oc(C(=O)O)cc2c(C)c1C | 172
Cc1ccc2c(c1)C=Cc1cc(C)ccc1C2c1cn(-c2ccnc(N3CCC[C@H]3C(=O)O)n2)c(=O)[nH]c1=O | 200 to 205
CCOC(=O)N1C(=O)C2(COc3cc4c(cc32)OCCO4)c2ccccc21 (stereo unspecified) | 198 to 200
O=c1[nH]c2ccccc2n1CCCN1CCC(O)(c2ccc(F)cc2)CC1 | 135
Clc1ccc2nc(NCC3CCN(CC4COc5ccccc5O4)CC3)sc2c1 (stereo unspecified) | 156
FC1=Cc2ccccc2Nc2ccccc21 | 69 to 72
COc1ccc2c(n1)C1(CO2)C(=O)Nc2ccccc21 (stereo unspecified) | 199 to 200
Clc1nc(NCc2ccc3c(c2)OCO3)c2c3c(sc2n1)CCCC3 | 222
CC(=O)Nc1ncnc2c1ncn2[C@@H]1C[C@H](OC(C)=O)[C@@H](O)[C@H]1O (racemic) | 193 to 195
CCOC(=O)C1=C(C)NC(c2ccc(C)cc2)=C(C(=O)OCC)C1c1cccc([N+](=O)[O-])c1 (stereo unspecified) | 149 to 150
CCC(CC)N(Cc1ccc(C(=O)OC)cc1)S(=O)(=O)c1ccc(Cl)cc1 | 95 to 97
COC(=O)CCC/C=C\CN1C(=O)c2ccccc2C1=O | 47 to 49

Compound | melting point [°C]
CCSC1=NCC(=O)N1c1ccccc1 | 79 to 81
CSC(=O)N1c2ccccc2C(=O)N(C(C)C)S1(=O)=O | 125 to 127
c1ccc2c(c1)CCn1ccnc1C2=C1CCNCC1 | 287 to 289
CC(C)CCN1C(=O)C(NC(=O)Oc2ccccc2)C(=O)N(c2ccccc2F)c2ccccc21 (stereo unspecified) | 226 to 227
Cc1oc(-c2ccc(Cl)cc2)nc1CO | 130 to 131
CC(=O)N(C)C(=O)Oc1cccc2c1OC(C)(C)O2 | 76 to 77
CC1CCC(N(CC2CCCC(CN(C(=O)Nc3ccc(N(C)C)cc3)C3CCC(C)CC3)C2)C(=O)Nc2ccc(N(C)C)cc2)CC1 (stereo unspecified) | 106 to 110
OC1(CSc2ccc(-c3ccccc3)cc2)CN2CCC1CC2 (stereo unspecified) | 145 to 147
NS(=O)(=O)c1cnc(-c2ccccc2)s1 | 209 to 210
NC(=S)c1sc(-c2ccccc2)nc1N | 164 to 167
O=C1OCC2=C1C(c1ccccc1[N+](=O)[O-])C1=C(COC1=O)N2 | 273 to 274
CC(C)OC(=O)Cn1c(=O)n(C)c(=O)n(-c2cc(N3C(=O)C4CS(=O)CCN4C3=O)c(F)cc2Cl)c1=O (stereo unspecified) | 175 to 180
CCCCCc1ccc(CC(=O)c2ccc(O)cc2)cc1 | 112
Cc1ccc(Oc2ccccc2NN)c(O)c1 | 108 to 110
Cn1ccc(COc2nn3c(-c4ccccc4F)nnc3cc2C2CCC2)n1 | 184 to 186
CCN(C)C1=NS(=O)(=O)c2cc(Cl)ccc2N1 | > 220
CCCCC1=NC2(CCCC2)C(=O)N1Cc1ccc(-c2ccccc2S(=O)(=O)Nc2noc(C)c2C)c(CO)c1 | 90 to 98
CCCCC(=N)NC(=O)Nc1ccc(OC)cc1 | 144 to 145
COc1ccc(CN2CCC(c3ccc(-c4cccc(N)n4)cc3)CC2)cc1OC | 150 to 165
Cc1cccc2[nH]c3c4c(Cl)cccc4nc-3cc12 | 170 to 172
CN(C)c1ccc2c(c1)Sc1cc(N(C)C)ccc1N2C(=O)c1cc(C(C)(C)C)c(O)c(C(C)(C)C)c1 | 212 to 216
Nc1cc(C(=O)c2ccccc2)ccc1N1CCCCC1 | 99 to 100
NC(=O)CNC(=O)c1cc(-c2ccc(F)c3cc(Cc4cc(F)cc(Cl)c4)sc23)ccc1F | 148 to 150
Cn1c2c(c3ccccc31)CC(C(=O)O)N(C(=O)c1ccc(Cl)cc1)C2 (stereo unspecified) | 262 to 263
CCOC(=O)c1cnn2c1c(Cl)nc1ccccc12 | 105 to 106
CSc1nn2c(N(C)C)cc(C)nc2c1S(=O)(=O)c1ccc(Cl)cc1 | 221 to 223

Compound | melting point [°C]
COC(=O)c1ccc(O)c(O)c1O | 221
CCCCCCCCCCOCC(COCCCCCCCCCC)(CC(=O)O)CC(=O)O | 68 to 71
Cc1cccc2nn(-c3cc(O)ccc3O)nc12 | 202 to 203
CC(=O)NCC1CC(c2ccc(F)c(F)c2)=NO1 (stereo unspecified) | 136 to 137
COC(=O)c1cc2cc(OC)c(OC)cc2nc1/N=C/N(C)C | 166 to 168
O=C(O)CNC(=O)c1c(O)n(C2CCCCC2)c(=O)n(C2CCCC2)c1=O | 222 to 224
COC(=O)C1=C(C)NC(c2csc(Cl)n2)=NC1c1ccc(F)cc1Cl (stereo unspecified) | 160 to 162
NC(=O)c1ccc(-c2cccc3cc(Cc4cc(F)cc(Cl)c4)sc23)cc1 | 202 to 203
COc1ccc(OC)c2c(=O)c3ccccc3sc12 | 201 to 202
NCC(=O)Nc1cccc(C(N)=O)c1 | 139 to 140
Nc1ncnc2c1c(-c1ccc3cn[nH]c3c1)nn2Cc1oc2ccccc2c(=O)c1-c1ccccc1 | 140 to 143
O=C(O)CNC(=O)C(S)Cc1ccccc1 (stereo unspecified) | 55 to 58
COc1ccc(C(=O)Cn2cc[nH]c2=O)cc1OC1CCCC1 | 201
CCCCCCCCCCCCCCCCCCSC(C)(C)C(=O)CC(=O)OCC | 34 to 37
ON=c1cc(-c2cc3cccn3cn2)oc2ccc(OCCOc3ccncc3)cc12 | 198 to 200
CCCCC(CC)c1nc2cc(Cl)c(C#N)c(C)n2n1 (stereo unspecified) | 95 to 96
CCNC(=O)[C@@H]1CCCN1C(=O)[C@H](C)NC(=O)OCC | 126 to 128
CCNC(=O)c1ccccc1OC(C)(C)C | 34.5 to 36
CN1CCN(c2ccccc2C=CC(=O)Nc2ccc(Cl)c(Cl)c2)CC1 | 192 to 193
Cc1nn(-c2ccccc2)c(Nc2ccccc2)c1CC(=O)O | 111 to 113
COc1cc(OC)cc(C2=NC(CO)Cc3cc(OC)c(OC)cc32)c1 (stereo unspecified) | 59 to 62
Clc1nc(Cl)nc(Nc2ccc(OCc3ccccc3)c(Cl)c2)n1 | 145
COc1cc(N2CCN(C(=O)c3ccc(Nc4ccnc5cc(C(F)(F)F)ccc45)cc3)CC2)nc(OC)n1 | 260 to 262
CCOCCS(=O)(=O)c1c(Cl)nc(Cl)nc1Cl | 133 to 134
Cc1cc2c(cc1Cl)N(C(=O)Nc1ccncc1)CC2 | > 230
Cn1ncc(C(=O)N2CC(F)C2)c1C(=O)Nc1ccc2nc(-c3ccccc3)nn2c1 | 243

Compound | melting point [°C]
Cc1oc2c(-n3c(=O)cc(C(F)(F)F)n(C)c3=O)c(F)cc(Cl)c2c1CC(N)=O | 127 to 129
COc1cccc(CN2Cc3cc(OC)c(O)cc3CC2C)c1 (stereo unspecified) | 100 to 105
O=C(Cc1ccccc1Cl)Nc1ccc(C(=O)Oc2ccccc2)c(Cl)c1 | 160 to 163
O=C1Nc2cc(Cl)ccc2Sc2cscc21 | 267 to 269
O=C(NCc1ccccc1)c1ccc2[nH]ccc2c1 | 155 to 160
CC(C)CCCC(C)NC(=O)Oc1ccc(Oc2ccccc2)cc1F (stereo unspecified) | 37 to 41
N#Cc1[nH]c(-c2c(Cl)cc(C(F)(F)F)cc2Cl)nc1C(N)=O | 254 to 255
C=Cc1ncn(-c2c(Cl)cc(C(F)(F)F)cc2Cl)n1 | 97 to 99
Cc1nc2nc(/C=C3/C(=O)N4C(C(=O)O)=CS[C@H]34)nn2c2c1CCCC2 | 250
O=C(Cc1ccc(Cl)cc1Cl)Nc1ccccc1 | 146
Cn1c(=O)cnn(-c2ccc(Cl)c(C(=O)NCCc3ccccc3Cl)c2)c1=O | 157 to 161
CCCCCCC(C(=O)N1CC(O)CC1C(=O)O)n1cnc2cc(-c3ccccc3-c3nn[nH]n3)ccc21 (stereo unspecified) | 155 to 160
O=C(O)CC1CCCCC1Oc1ccc(C(=O)c2ccc(Cl)cc2)cc1 (stereo unspecified) | 130 to 132
CC(C)(OCCOCc1nn(Cc2ccccc2)c2ccccc12)C(=O)O | 94 to 95
CN1CCN(c2ccc(Nc3ncc4ccc(Nc5ccccc5)n4n3)cc2)CC1 | 152 to 157
Oc1nc2cc(Cl)c3nc[nH]c3c2nc1O | > 300
COc1c2c(c(OC)c(OC)c1OC)CC(CCCCCCC1Cc3c(c(OC)c(OC)c(OC)c3OC)C1)C2 | 100 to 108
CC(C)(CC(=O)O)C(Br)CC(Cl)(Cl)Cl (stereo unspecified) | 123 to 124
COC1(c2cnc(OCc3ccc(/C(C)=N/O)cc3)s2)CCOCC1 | 107 to 109
CC[C@H](Nc1nc(Nc2cccc(NS(C)(=O)=O)c2)nc2[nH]cnc12)c1ccccc1 | 138 to 141
CC(=NO)c1ccc2c(c1)CCc1c(O)cc(O)cc1S2 | 215 to 218
CCCc1oc(-c2ccccc2)nc1COc1ccc(COc2ccccc2CC(=O)O)cc1 | 129 to 130
Cc1c(C)c([N+](=O)[O-])c(C)c2c1OC(C)(C)C2c1ccc(F)cc1 (stereo unspecified) | 94 to 95
